The results in this text go back to the NIST ThermoML archive (doi:10.1016/j.fluid.2013.08.005).

Series [1] can be described thus: molar heat capacity at constant pressure. The conditions noted are these: 101 kPa, Liquid, Large sample (1 g) DSC.
Series [2] is described as follows: molar heat capacity at constant pressure; mn = molality of the nth substance listed, in mol/kg. Particulars: 101 kPa, Liquid, Large sample (1 g) DSC, m2 = 0.
Series [3] can be described thus: mn = molality of the nth substance listed, in mol/kg. The conditions noted are these: 298.15 K; 101 kPa; Liquid; Alternating current cell with electrodes; m2 = 0.

Molecules are shown by their SMILES. Values joined by “and” are separate entries in the source; they are usually repeats but may differ in a detail not shown here. Equal entries are not always repeated. ± gives the expanded uncertainty stated by the source.

Regarding `O` [water], the “molar heat capacity at constant pressure” value in series [1] (298.15 K) was 75.37 ± 1.3 J/K/mol and 75.35 ± 1.3 J/K/mol; in series [1] (303.15 K), 75.34 ± 1.3 J/K/mol and 75.32 ± 1.3 J/K/mol; in series [1] (308.15 K), 75.33 ± 1.3 J/K/mol and 75.32 ± 1.3 J/K/mol; in series [1] (313.15 K), 75.34 ± 1.3 J/K/mol and 75.33 ± 1.3 J/K/mol.

For the molecule `O` [water] + CCCCCC[N+](C)(C)C.[Br-], the “molar heat capacity at constant pressure” value is 75.37 ± 1.3 J/K/mol in series [2] (298.15 K), 75.34 ± 1.3 J/K/mol in series [2] (303.15 K), 75.33 ± 1.3 J/K/mol in series [2] (308.15 K) and 75.34 ± 1.3 J/K/mol in series [2] (313.15 K). In series [3], the electrical conductivity came to 0.239 ± 0.0095 S/m.

For the molecule `O` [water] + CCCCCCCC[N+](C)(C)C.[Br-], the “molar heat capacity at constant pressure” value in series [2] (298.15 K) came to 75.35 ± 1.3 J/K/mol; in series [2] (303.15 K), 75.32 ± 1.3 J/K/mol; in series [2] (308.15 K) it was 75.32 ± 1.3 J/K/mol; in series [2] (313.15 K), 75.33 ± 1.3 J/K/mol.
